Reference: article PMC9811465, “Structure-Based Discovery of Small-Molecule Inhibitors of the Autocatalytic Proliferation of α-Synuclein Aggregates” (Molecular Pharmaceutics, 2022)

Experiments:
α-synuclein (fibrils) = biological target: T1, α-synuclein (fibrils) (Homo sapiens, UniProt P37840); assay: fluorescence polarization with fibrils (Kd in monomer equivalents); supported by mass spectrometry pull-down, fluorescence colocalization and aggregation kinetics; type: binding
T1 construct: gene SNCA; recombinant human α-synuclein, preformed amyloid fibrils

α-synuclein = biological target: T2, α-synuclein (Homo sapiens, UniProt P37840); assay: ThT seeded aggregation kinetics; half-time increased […] times at […] molar equivalents; weakest, not significant at […] equivalents; type: biochemical
T2 construct: gene SNCA

| SMILES | Kd (α-synuclein (fibrils)) [µM] | ThT seeded aggregation kinetics; half-time increased 1.5 times at 10 molar equiv (α-synuclein) |
| --- | --- | --- |
| Cc1c(OCc2nnn[nH]2)ccc2c1oc(=O)c1ccccc12 [C, compound C] | ~4 | – |
| Cc1nc2ccccn2c1C(=O)NCc1nccnc1-c1ccco1 [A, compound A] | – | 1.5 fold increase in half-time (t1/2) |
